Data from patent US20120244074A1, “LABELLED INTEGRIN BINDERS” (priority 2009, published 2012).
pKi: −log10 of the molar value.

What was measured:
integrin receptors αvβ3 = biological target: T1, integrin receptors αvβ3 (Homo sapiens, UniProt P05106+P06756); experiment: In vitro affinity assessment αvβ3: competition with radiolabelled Echistatin on membrane fractions of EA-Hy 926; assay type: binding; settings: for competing out binding of the radiolabelled Echistatin: highest concentration tested 144 μM, FIG. 1
T1 construct: membrane fractions prepared from human endothelial adenocarcinoma cell line EA-Hy 926; endogenous in cells; host or cells: EA-Hy 926 (human endothelial cell line), membrane fractions
Description: Affinity for integrin receptors αvβ3 was measured by competition experiments with [[…]]-Echistatin on membrane fractions prepared from human endothelial adenocarcinoma cell line EA-Hy 926 using a homogenizer and isolated by ultracentrifugation. Dilutions of test compounds were mixed with the radiotracer and membrane fraction prior to incubation for 1 h at 37° C. After a washing procedure the membranes were harvested on a filter using Skatron micro harvester. The filter spots were finally excised and counted in a Packard γ-counter. The Kd of [[…]]-Echistatin was calculated using Prism software. […] The compounds tested were EMD527040 (benchmark), the cPn216-chelated compound of Example 2(viii) and the tetraamine-chelated compound of Example 3(ii).

[1] = test system: lung adenocarcinoma cell line H2009; experiment: Flow cytometry evaluation of binding on H2009 cells; assay type: cell-based; settings: 100 nM, incubation time 1 h at 37° C.
Text: Binding of imaging agent 7 (prepared as described in Example 9) was studied using flow cytometric analysis (Beckman Coulter FC500 MPL) on lung adenocarcinoma cell line H2009 (Cancer Res; 67: 5889-5895).

Row | Compound | competing out binding of the radiolabelled Echistatin (integrin receptors αvβ3) | other results
1 | Echistatin [reference compound] | – | pKi (integrin receptors αvβ3; competition with [^115I]-Echistatin, EA-Hy 926 membrane fraction, 1 h at 37° C.): 9.85
2 | C/C(=N/O)C(C)(C)NCCC(CCNC(=O)CCCC(=O)NC[C@H](NC(=O)CCCCNc1ccccn1)C(=O)NC(CC(=O)O)c1cc(Cl)cc(Cl)c1)CCNC(C)(C)/C(C)=N\O (stereo partly drawn) [Example 2(viii), (6S,Z)-3-(3,5-dichlorophenyl)-22-(hydroxyimino)-17-(2-(((Z)-3-(hydroxyimino)-2-methylbutan-2-yl)amino)ethyl)-21,21-dimethyl-5,9,13-trioxo-6-(5-(pyridin-2-ylamino)pentanamido)-4,8,14,20-tetraazatricosan-1-oic acid] | not possible to compete out binding of the radiolabelled Echistatin completely | –
3 | NCCNCC(CNCCN)CC(=O)NC[C@H](NC(=O)CCCCNc1ccccn1)C(=O)NC(CC(=O)O)c1cc(Cl)cc(Cl)c1 (stereo partly drawn) [Example 3(ii), 3-((S)-3-(4-(2-Aminoethylamino)-3-((2-aminoethylamino)methyl)butanamido)-2-(5-(pyridin-2-ylamino)pentanamido)propanamido)-3-(3,5-dichlorophenyl)propanoic acid] | not possible to compete out binding of the radiolabelled Echistatin completely | –
4 | O=C(O)CC(NC(=O)[C@H](COCc1ccccc1)NC(=O)CCCCNc1ccccn1)c1cc(Cl)cc(Cl)c1 (some centres unmarked) [EMD527040, reference compound] | not possible to compete out binding of the radiolabelled Echistatin completely | –
5 | 1-(Cy5**-amido)-45-(3,5-dichlorophenyl)-39,43-dioxo-42-(5-(pyridin-2-ylamino)pentanamido)-3,6,9,12,15,18,21,24,27,30,33,36-dodecaoxa-40,44-diazaheptatetracontan-47-oic acid [imaging agent 7] | – | positive uptake, share of the cells [1]: around 40%
